Results on 1 compound are retold here after BindingDB's records for doi:10.1016/j.bmcl.2017.05.059 (University of Mysore, 2017).

This assay can be described thus: Inhibition of Vipera russelii venom sPLA2-induced hemolytic activity in human erythrocytes assessed as reduction hemoglobin release in presence of egg yolk preincubated for 5 mins followed by erythrocyte addition by spectrophotometric analysis.

`COc1ccc(C2CC(c3ccco3)=Nc3ccccc3S2)cc1` (stereo unspecified): the half-maximal inhibitory concentration (IC50) was found to be 21.3 µM.
